Reference: the NIST ThermoML archive (doi:10.1016/j.jct.2016.10.023)
Numbers after ± are expanded uncertainties.

Experiment: xn = mol fraction of the nth substance listed
Details: Constant-volume piezometry

CCCCC [pentane] + CCCO
Details	mass density [kg/m3]
433.15 K, 35839 kPa, Liquid, x1 = 0.5	609.23 ± 1.2
433.15 K, 36095 kPa, Liquid, x1 = 0.2	661.31 ± 1.4
433.15 K, 41420 kPa, Liquid, x1 = 0.8	572.89 ± 1.2
437.15 K, 2040 kPa, Gas, x1 = 0.8	58.65 ± 0.18
438.15 K, 1323 kPa, Gas, x1 = 0.5	30.1 ± 0.09
438.15 K, 2052 kPa, Gas, x1 = 0.8	58.65 ± 0.18
438.15 K, 2515 kPa, Liquid, x1 = 0.5	509.1 ± 1
440.15 K, 2121 kPa, Liquid, x1 = 0.2	584.41 ± 1.2
443.15 K, 781 kPa, Gas, x1 = 0.5	15.58 ± 0.05
443.15 K, 1062 kPa, Gas, x1 = 0.8	22.61 ± 0.07
443.15 K, 1353 kPa, Gas, x1 = 0.5	30.1 ± 0.09
443.15 K, 1529 kPa, Gas, x1 = 0.8	36.83 ± 0.11
443.15 K, 2108 kPa, Gas, x1 = 0.8	58.64 ± 0.18
443.15 K, 3419 kPa, Liquid, x1 = 0.2	584.3 ± 1.2
443.15 K, 4067 kPa, Liquid, x1 = 0.5	508.96 ± 1
443.15 K, 5776 kPa, Liquid, x1 = 0.5	521.85 ± 1.1
443.15 K, 6119 kPa, Liquid, x1 = 0.8	468.84 ± 0.95
443.15 K, 7864 kPa, Liquid, x1 = 0.2	598.01 ± 1.2
443.15 K, 11620 kPa, Liquid, x1 = 0.8	498.47 ± 1
443.15 K, 13293 kPa, Liquid, x1 = 0.5	550.88 ± 1.1
443.15 K, 15549 kPa, Liquid, x1 = 0.2	617.55 ± 1.2
443.15 K, 19116 kPa, Liquid, x1 = 0.8	523.16 ± 1.1
443.15 K, 24271 kPa, Liquid, x1 = 0.5	577.21 ± 1.2
443.15 K, 29321 kPa, Liquid, x1 = 0.2	638.71 ± 1.3
443.15 K, 31113 kPa, Liquid, x1 = 0.5	589.73 ± 1.2
443.15 K, 32587 kPa, Liquid, x1 = 0.8	550.89 ± 1.1
443.15 K, 37375 kPa, Liquid, x1 = 0.5	600.38 ± 1.2
443.15 K, 43094 kPa, Liquid, x1 = 0.2	660.83 ± 1.4
446.15 K, 2393 kPa, Gas, x1 = 0.8	74.06 ± 0.23
447.15 K, 1740 kPa, Gas, x1 = 0.5	40.63 ± 0.13
448.15 K, 1748 kPa, Gas, x1 = 0.5	40.63 ± 0.12
448.15 K, 2548 kPa, Liquid, x1 = 0.9	408.95 ± 0.83
448.15 K, 2624 kPa, Liquid, x1 = 0.8	419.92 ± 0.85
449.15 K, 2796 kPa, Liquid, x1 = 0.8	419.9 ± 0.85
451.15 K, 2529 kPa, Gas, x1 = 0.9	83.67 ± 0.29
452.15 K, 2545 kPa, Gas, x1 = 0.9	83.66 ± 0.29
453.15 K, 804 kPa, Gas, x1 = 0.5	15.57 ± 0.05
453.15 K, 1101 kPa, Gas, x1 = 0.8	22.6 ± 0.07
453.15 K, 1255 kPa, Gas, x1 = 0.2	25.01 ± 0.08
453.15 K, 1405 kPa, Gas, x1 = 0.5	30.08 ± 0.09
453.15 K, 1584 kPa, Gas, x1 = 0.8	36.81 ± 0.11
453.15 K, 1789 kPa, Gas, x1 = 0.5	40.62 ± 0.13
453.15 K, 2048 kPa, Gas, x1 = 0.5	51.26 ± 0.16
453.15 K, 2206 kPa, Gas, x1 = 0.8	58.61 ± 0.18
453.15 K, 2494 kPa, Gas, x1 = 0.8	74.04 ± 0.23
453.15 K, 2562 kPa, Gas, x1 = 0.9	83.66 ± 0.29
453.15 K, 3375 kPa, Liquid, x1 = 0.9	408.84 ± 0.83
453.15 K, 3511 kPa, Liquid, x1 = 0.8	419.81 ± 0.85
453.15 K, 7204 kPa, Liquid, x1 = 0.5	508.66 ± 1
453.15 K, 7807 kPa, Liquid, x1 = 0.2	583.93 ± 1.2
453.15 K, 8728 kPa, Liquid, x1 = 0.8	468.58 ± 0.95
453.15 K, 9366 kPa, Liquid, x1 = 0.5	521.54 ± 1.1
453.15 K, 12785 kPa, Liquid, x1 = 0.2	597.62 ± 1.2
453.15 K, 14688 kPa, Liquid, x1 = 0.8	498.18 ± 1
453.15 K, 17282 kPa, Liquid, x1 = 0.5	550.54 ± 1.1
453.15 K, 21030 kPa, Liquid, x1 = 0.2	617.14 ± 1.3
453.15 K, 22882 kPa, Liquid, x1 = 0.8	522.84 ± 1.1
453.15 K, 28840 kPa, Liquid, x1 = 0.5	576.84 ± 1.2
453.15 K, 34516 kPa, Liquid, x1 = 0.2	638.29 ± 1.3
453.15 K, 37125 kPa, Liquid, x1 = 0.8	550.54 ± 1.1
455.15 K, 2058 kPa, Gas, x1 = 0.5	51.26 ± 0.16
455.15 K, 2617 kPa, Liquid, x1 = 0.5	469.97 ± 0.95
459.15 K, 2107 kPa, Liquid, x1 = 0.2	549.17 ± 1.1
459.25 K, 2109 kPa, Liquid, x1 = 0.2	549.17 ± 1.1
460.15 K, 2449 kPa, Liquid, x1 = 0.2	549.14 ± 1.1
461.15 K, 3036 kPa, Gas, x1 = 0.8	106.72 ± 0.34
463.15 K, 825 kPa, Gas, x1 = 0.5	15.56 ± 0.05
463.15 K, 1134 kPa, Gas, x1 = 0.8	22.59 ± 0.07
463.15 K, 1296 kPa, Gas, x1 = 0.2	25 ± 0.08
463.15 K, 1450 kPa, Gas, x1 = 0.5	30.07 ± 0.09
463.15 K, 1641 kPa, Gas, x1 = 0.8	36.79 ± 0.11
463.15 K, 1866 kPa, Gas, x1 = 0.5	40.6 ± 0.13
463.15 K, 2150 kPa, Gas, x1 = 0.5	51.24 ± 0.16
463.15 K, 2308 kPa, Gas, x1 = 0.8	58.58 ± 0.18
463.15 K, 2637 kPa, Gas, x1 = 0.8	74 ± 0.24
463.15 K, 2727 kPa, Gas, x1 = 0.9	83.62 ± 0.29
463.15 K, 3075 kPa, Liquid, x1 = 0.5	452.77 ± 0.91
463.15 K, 3080 kPa, Gas, x1 = 0.8	106.71 ± 0.34
463.15 K, 3117 kPa, Liquid, x1 = 0.9	355.23 ± 0.72
463.15 K, 3523 kPa, Liquid, x1 = 0.2	549.04 ± 1.1
463.15 K, 3571 kPa, Liquid, x1 = 0.5	459.88 ± 0.93
463.15 K, 4516 kPa, Liquid, x1 = 0.5	469.76 ± 0.95
463.15 K, 5048 kPa, Liquid, x1 = 0.9	408.62 ± 0.83
463.15 K, 5052 kPa, Liquid, x1 = 0.9	408.62 ± 0.83
463.15 K, 5310 kPa, Liquid, x1 = 0.8	419.58 ± 0.85
463.15 K, 10451 kPa, Liquid, x1 = 0.5	508.36 ± 1
463.15 K, 11344 kPa, Liquid, x1 = 0.8	468.31 ± 0.95
463.15 K, 12276 kPa, Liquid, x1 = 0.2	583.56 ± 1.2
463.15 K, 12696 kPa, Liquid, x1 = 0.5	521.23 ± 1.1
463.15 K, 17686 kPa, Liquid, x1 = 0.2	597.23 ± 1.2
463.15 K, 17835 kPa, Liquid, x1 = 0.8	497.88 ± 1
463.15 K, 20989 kPa, Liquid, x1 = 0.5	550.21 ± 1.1
463.15 K, 26488 kPa, Liquid, x1 = 0.2	616.73 ± 1.3
463.15 K, 26685 kPa, Liquid, x1 = 0.8	522.53 ± 1.1
463.15 K, 33534 kPa, Liquid, x1 = 0.5	576.47 ± 1.2
463.15 K, 41577 kPa, Liquid, x1 = 0.8	550.2 ± 1.1
463.15 K, 41859 kPa, Liquid, x1 = 0.2	637.82 ± 1.3
464.15 K, 3225 kPa, Liquid, x1 = 0.9	355.21 ± 0.73
465.15 K, 3139 kPa, Gas, x1 = 0.9	123.69 ± 0.41
466.15 K, 3167 kPa, Gas, x1 = 0.9	123.69 ± 0.41
468.15 K, 2722 kPa, Gas, x1 = 0.5	72.79 ± 0.23
468.15 K, 3224 kPa, Gas, x1 = 0.9	123.67 ± 0.46
468.15 K, 3337 kPa, Liquid, x1 = 0.5	442.3 ± 0.89
468.15 K, 3480 kPa, Liquid, x1 = 0.8	346.36 ± 0.71
468.15 K, 3796 kPa, Liquid, x1 = 0.8	362.98 ± 0.74
469.15 K, 3297 kPa, Gas, x1 = 0.9	134.47 ± 0.56
469.15 K, 3585 kPa, Liquid, x1 = 0.8	346.34 ± 0.71
470.15 K, 2757 kPa, Gas, x1 = 0.5	72.78 ± 0.23
470.15 K, 3441 kPa, Liquid, x1 = 0.9	310.06 ± 0.71
470.15 K, 3577 kPa, Liquid, x1 = 0.9	332 ± 0.76
473.15 K, 846 kPa, Gas, x1 = 0.5	15.56 ± 0.05
473.15 K, 1166 kPa, Gas, x1 = 0.8	22.58 ± 0.07
473.15 K, 1339 kPa, Gas, x1 = 0.2	24.99 ± 0.08
473.15 K, 1500 kPa, Gas, x1 = 0.5	30.05 ± 0.09
473.15 K, 1696 kPa, Gas, x1 = 0.8	36.78 ± 0.11
473.15 K, 1943 kPa, Gas, x1 = 0.5	40.58 ± 0.13
473.15 K, 2238 kPa, Gas, x1 = 0.5	51.21 ± 0.16
473.15 K, 2408 kPa, Gas, x1 = 0.8	58.55 ± 0.18
473.15 K, 2703 kPa, Gas, x1 = 0.5	67.68 ± 0.21
473.15 K, 2775 kPa, Gas, x1 = 0.8	73.97 ± 0.24
473.15 K, 2808 kPa, Gas, x1 = 0.5	72.77 ± 0.23
473.15 K, 2888 kPa, Gas, x1 = 0.9	83.58 ± 0.28
473.15 K, 3309 kPa, Gas, x1 = 0.8	106.65 ± 0.35
473.15 K, 3339 kPa, Liquid, x1 = 0.5	418.35 ± 0.85
473.15 K, 3349 kPa, Gas, x1 = 0.9	123.64 ± 0.38
473.15 K, 3414 kPa, Gas, x1 = 0.9	134.44 ± 0.6
473.15 K, 3511 kPa, Gas, x1 = 0.9	164.35 ± 0.84
473.15 K, 3553 kPa, Gas, x1 = 0.9	189.91 ± 1.4
473.15 K, 3564 kPa, Gas, x1 = 0.9	202.87 ± 3.2

Liquid
Details	mass density [kg/m3]
438.95 K, x1 = 0.2	584.46 ± 3.5
446.85 K, x1 = 0.8	419.95 ± 2.5
447.55 K, x1 = 0.9	408.96 ± 2.5
454.85 K, x1 = 0.5	469.97 ± 2.8
458.15 K, x1 = 0.2	549.2 ± 3.3
462.15 K, x1 = 0.5	452.82 ± 2.7
462.85 K, x1 = 0.9	355.24 ± 2.1
463.55 K, x1 = 0.8	363.07 ± 2.2
466.15 K, x1 = 0.5	442.34 ± 2.7
467.15 K, x1 = 0.8	346.37 ± 2.1
467.15 K, x1 = 0.9	334.99 ± 2
470.15 K, x1 = 0.8	334.76 ± 2
470.15 K, x1 = 0.9	313.16 ± 1.9
470.85 K, x1 = 0.9	302.48 ± 1.8
471.25 K, x1 = 0.9	282.74 ± 1.7
471.95 K, x1 = 0.9	244.86 ± 1.5
472.05 K, x1 = 0.9	241.54 ± 1.4
472.15 K, x1 = 0.9	237.12 ± 1.4
472.65 K, x1 = 0.8	316.17 ± 1.9
